As a reminder, the IC50 is the concentration that gives 50% inhibition.

The structures appear in SMILES notation.

For the assay, the target named is Protein artemis (Homo sapiens, UniProt Q96SD1). Nature of the assay: IC50 of Artemis nuclease activity blockers – biochemical, fluorescence intensity, dose response (AID 720701).
Sequence of Protein artemis (Q96SD1 whole entry): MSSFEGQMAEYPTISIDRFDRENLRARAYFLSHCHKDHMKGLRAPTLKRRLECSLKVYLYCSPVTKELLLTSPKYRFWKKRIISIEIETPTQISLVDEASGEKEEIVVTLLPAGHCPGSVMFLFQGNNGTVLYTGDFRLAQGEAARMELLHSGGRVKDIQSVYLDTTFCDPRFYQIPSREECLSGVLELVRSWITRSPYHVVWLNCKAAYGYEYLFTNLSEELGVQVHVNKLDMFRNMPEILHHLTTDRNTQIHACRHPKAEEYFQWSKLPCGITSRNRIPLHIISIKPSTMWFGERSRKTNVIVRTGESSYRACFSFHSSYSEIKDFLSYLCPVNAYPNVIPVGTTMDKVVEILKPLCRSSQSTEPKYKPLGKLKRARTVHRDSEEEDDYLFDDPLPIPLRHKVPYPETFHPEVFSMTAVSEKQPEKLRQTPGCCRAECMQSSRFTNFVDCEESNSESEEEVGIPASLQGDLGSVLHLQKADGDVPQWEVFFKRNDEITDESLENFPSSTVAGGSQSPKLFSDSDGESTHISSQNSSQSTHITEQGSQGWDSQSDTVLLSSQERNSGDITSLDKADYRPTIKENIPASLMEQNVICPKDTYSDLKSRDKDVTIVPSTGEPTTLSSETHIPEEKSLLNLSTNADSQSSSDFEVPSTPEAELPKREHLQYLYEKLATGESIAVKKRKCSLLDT
Compound `C=CCN1C(=O)S/C(=C\c2ccc(N3CCOCC3)cc2C)C1=O` [(5Z)-5-[[2-methyl-4-(4-morpholinyl)phenyl]methylidene]-3-prop-2-enylthiazolidine-2,4-dione] yielded an IC50 of 1.5 µM.

For the compound `Cc1cccc(CN2C(=O)N/C(=C/c3ccc(C)s3)C2=O)c1`, the IC50 was determined as 16.4 µM.

Compound `CCCCOc1ccc(/C=C2/Sc3ccccc3C2=O)cc1` [2-(4-Butoxy-benzylidene)-benzo[b]thiophen-3-one] gave an IC50 of over 20 µM.

The compound `COc1ccc(O)c(CN=Nc2nc(Nc3ccccc3)nc(-n3nc(C)cc3C)n2)c1` [(6E)-6-[[2-[4-(3,5-dimethylpyrazol-1-yl)-6-phenylazanyl-1,3,5-triazin-2-yl]hydrazinyl]methylidene]-4-methoxy-cyclohexa-2,4-dien-1-one] displayed an IC50 of 2.23 µM.

The compound `CCCCCCCCCC(N=O)c1ccccn1` (stereo unspecified) [1-Pyridin-2-yl-decan-1-one oxime] returned an IC50 of 11 µM.

The compound `N#CC1C(=N)Oc2[nH]nc(-c3cccs3)c2C1c1ccoc1` (stereo unspecified) [6-amino-4-(furan-3-yl)-3-thiophen-2-yl-2,4-dihydropyrano[2,3-c]pyrazole-5-carbonitrile] had a 50% inhibitory concentration (IC50) of over 20 µM.

On to `O=C1C=Cc2ccccc2/C1=C/NC12CN3CCN(CN(C3)C1)C2` [MLS000071484], for which the half-maximal inhibitory concentration (IC50) came out at 3.64 µM.

The compound `N#CC(C(=O)NCc1ccccc1)c1nc2ccccc2nc1N1CCCC1` (stereo unspecified) [2-cyano-N-(phenylmethyl)-2-(3-pyrrolidin-1-ylquinoxalin-2-yl)ethanamide] displayed a half-inhibitory concentration (IC50) of 5 µM. This IC50 and that of the compound before are within 1.5-fold of each other.

`CCN(CC)c1ccc(CN=Nc2nc3ccccc3[nH]2)c(O)c1` [MLS000541069] gave an IC50 of 15.5 µM.

For `CCCCc1ccc(/C=C2\C(=O)ON=C2c2ccccc2)s1` [4-(5-Butyl-thiophen-2-ylmethylene)-3-phenyl-4H-isoxazol-5-one], the IC50 worked out at 16.2 µM.

Regarding `CC(N=O)c1ccccc1C(=O)O` (stereo unspecified) [SMR000038583], the 50% inhibitory concentration (IC50) came to 3.62 µM.

`CCOc1ccc(-n2c(O)c(C=Nc3ccc(N4CCOCC4)cc3)c(=O)[nH]c2=O)cc1` [SMR000109118] yielded an IC50 of over 20 µM.

Compound `COc1ccc(Nc2nc(N=NCc3ccccc3)nc(NCc3ccco3)n2)cc1` showed an IC50 of 2.65 µM.

The compound `NS(=O)(=O)c1ccc2c(c1)C1C=CCC1C(C1CC=CCC1)N2` (stereo unspecified) [MLS000530517] showed an IC50 of 9.58 µM.

`CN1c2cccc3cccc(c23)C1N=O` (stereo unspecified) [1-Methyl-1H-benzo[cd]indol-2-one oxime]: the half-inhibitory concentration (IC50) was over 20 µM.

Compound `O=c1c2ccccc2nc(N=NCc2c(O)ccc3ccccc23)n1O` [SMR000145705] came in with a half-inhibitory concentration (IC50) of 4.68 µM.

For the origin of these results see BindingDB's records for doi:10.7270/Q2MC8XP5 (Burnham Center For Chemical Genomics, 2013).
